For the assay, the system named is ATDC5 cells. The assay is described as follows: Chondrogenesis activity assay in ATDC5 cells (collagen type II induction, immunofluorescence). Format: cell-based, mouse. The conditions noted are these: for EC50: collagen type II induction in ATDC5 cells, concentration reaching 50% of maximum induction; for Emax: maximum percent induction of collagen type II relative to internal reference compound at 10 μM, ATDC5 cells. The procedure, abridged:
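Mouse ATDC5 cells in insulin (10 μg/ml)-containing DMEM/F12 differentiation medium with 5% FCS were exposed to compound, typically 40 nM–10 μM at 0.1% DMSO, for 4 days at 37 °C. Intracellular collagen type II was quantified by Alexa Fluor 488 immunostaining with high-content imaging, relative to DMSO and a 10 μM reference compound.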

A word on the EC50: it is the concentration that produces a half-maximal response. Lower therefore signals a more potent agent. Usually Emax stands for the size of the effect at its maximum, as opposed to the concentration needed.

The structures appear in SMILES notation. Where only a bound is given, the exact number is not on record here.

Where the note is “Mus musculus”, `FC(F)(F)Cn1c2cnccc2c2cc(Cl)cc(-c3cnn(Cc4cccs4)c3)c21` [Example 166, 6-Chloro-8-(1-thiophen-2-ylmethyl-1H-pyrazol-4-yl)-9-(2,2,2-trifluoro-ethyl)-9H-pyrido[3,4-b]indole] gave a 50% effective concentration (EC50) of 840 nM and an Emax above 80%.
For `FC(F)(F)Cn1c2cnccc2c2cc(Cl)cc(-c3cnn(Cc4ccccn4)c3)c21` [Example 168, 6-Chloro-8-(1-pyridin-2-ylmethyl-1H-pyrazol-4-yl)-9-(2,2,2-trifluoro-ethyl)-9H-pyrido[3,4-b]indole], in that order: 990 nM and above 80%.
`COCCn1cc(-c2cc(Cl)cc3c4ccncc4n(CC(F)(F)F)c23)cn1` [Example 169, 6-Chloro-8-[1-(2-methoxy-ethyl)-1H-pyrazol-4-yl]-9-(2,2,2-trifluoro-ethyl)-9H-pyrido[3,4-b]indole]: the concentration giving a half-maximal response (EC50) was found to be 1100 nM. This molecule returned a concentration giving a half-maximal response (EC50) (Mus musculus) of 1300 nM.
Consider `FC(F)(F)Cn1c2cnccc2c2cc(Cl)cc(-c3cnc(-c4ccccc4)s3)c21` [Example 170, 6-Chloro-8-(2-phenyl-thiazol-5-yl)-9-(2,2,2-trifluoro-ethyl)-9H-pyrido[3,4-b]indole], for which, where the note is “Mus musculus”, the EC50 is above 10000 nM and the maximum response (Emax) lay in the range of 20 to 50%.
For `COc1ccc(-c2cc(Cl)cc3c2[nH]c2c(C)nccc23)cc1OC` [Example 172, 6-Chloro-8-(3,4-dimethoxy-phenyl)-1-methyl-9H-pyrido[3,4-b]indole], in that order: above 10000 nM and 20 to 50%.
Taken in the same sequence, the figures for `FC(F)(F)Cn1c2cnccc2c2cc(Cl)cc(-c3cnn(CC4CC4)c3)c21` [Example 173, 6-Chloro-8-(1-cyclopropylmethyl-1H-pyrazol-4-yl)-9-(2,2,2-trifluoro-ethyl)-9H-pyrido[3,4-b]indole] were 1900 nM and above 80%.
Taken in the same sequence, the figures for `FC(F)(F)Cn1c2cnccc2c2cc(Cl)cc(-c3cnc(C4CC4)s3)c21` [Example 174, 6-Chloro-8-(2-cyclopropyl-thiazol-5-yl)-9-(2,2,2-trifluoro-ethyl)-9H-pyrido[3,4-b]indole] were 7300 nM and 50 to 80%.
For `COc1cc(OC)c(-c2cc(Cl)cc3c2[nH]c2c(C)nccc23)c(OC)c1` [Example 175, 6-Chloro-1-methyl-8-(2,4,6-trimethoxy-phenyl)-9H-pyrido[3,4-b]indole], under “Mus musculus”, the 50% effective concentration (EC50) was above 10000 nM and the maximum response (Emax) is below 20%.
For the molecule `Cc1cc(OC(C)C)ccc1-c1cc(Cl)cc2c1[nH]c1c(C)nccc12` [Example 176, 6-Chloro-8-(4-isopropoxy-2-methyl-phenyl)-1-methyl-9H-pyrido[3,4-b]indole], for the setting “Mus musculus”, the EC50 was above 10000 nM and the maximum response (Emax) is 20 to 50%.
For `Cc1nccc2c1[nH]c1c(-c3ccc(OCc4ccccc4)cc3)cc(Cl)cc12` [Example 177, 8-(4-Benzyloxy-phenyl)-6-chloro-1-methyl-9H-pyrido[3,4-b]indole], in that order: above 10000 nM and 20 to 50%.
For `COc1ccc(-c2cc(Cl)cc3c2[nH]c2c(C)nccc23)c(OC)c1OC` [Example 178, 6-Chloro-1-methyl-8-(2,3,4-trimethoxy-phenyl)-9H-pyrido[3,4-b]indole], in that order: above 10000 nM and 20 to 50%.
Where the note is “Mus musculus”, `Cc1nccc2c1[nH]c1c(-c3ccc4c(c3)CCO4)cc(Cl)cc12` [Example 179, 6-Chloro-8-(2,3-dihydro-benzofuran-5-yl)-1-methyl-9H-pyrido[3,4-b]indole] had an EC50 above 10000 nM and a maximal response (Emax) above 80%.
Taken in the same sequence, the figures for `COc1ccc(-c2cc(Cl)cc3c2[nH]c2c(C)nccc23)cc1O` [Example 180, 5-(6-Chloro-1-methyl-9H-pyrido[3,4-b]indol-8-yl)-2-methoxy-phenol] were 330 nM and above 80%.
Taken in the same sequence, the figures for `Cc1nccc2c1[nH]c1c(-c3ccc(OCC4CC4)cc3)cc(Cl)cc12` [Example 181, 6-Chloro-8-(4-cyclopropylmethoxy-phenyl)-1-methyl-9H-pyrido[3,4-b]indole] were 2100 nM and above 80%.
Taken in the same sequence, the figures for `Cc1nccc2c1[nH]c1c(-c3ccc(OCC4(C)COC4)cc3)cc(Cl)cc12` [Example 182, 6-Chloro-1-methyl-8-[4-(3-methyl-oxetan-3-ylmethoxy)-phenyl]-9H-pyrido[3,4-b]indole] were 220 nM and above 80%.
As for `Cc1nccc2c1[nH]c1c(-c3ccc(OC4CC4)cc3)cc(Cl)cc12` [Example 183, 6-Chloro-8-(4-cyclopropoxy-phenyl)-1-methyl-9H-pyrido[3,4-b]indole], where the note is “Mus musculus”, a half-maximal response (EC50) required 2300 nM and the Emax lay in the range of 50 to 80%.
For `COc1ccc(-c2cc(Cl)cc3c2[nH]c2c(C)nccc23)cc1OCc1ccccc1` [Example 185, 8-(3-Benzyloxy-4-methoxy-phenyl)-6-chloro-1-methyl-9H-pyrido[3,4-b]indole], in that order: above 10000 nM and 20 to 50%.
For `COc1ccc(-c2cc(Cl)cc3c2[nH]c2c(C)nccc23)cc1N` [Example 186, 5-(6-Chloro-1-methyl-9H-pyrido[3,4-b]indol-8-yl)-2-methoxy-phenylamine], in that order: 100 nM and above 80%.
Taken in the same sequence, the figures for `COc1ccc(-c2cc(Cl)cc3c2[nH]c2c(C)nccc23)c(C)c1C` [Example 187, 6-Chloro-8-(4-methoxy-2,3-dimethyl-phenyl)-1-methyl-9H-pyrido[3,4-b]indole] were 2200 nM and above 80%.
Under “Mus musculus”, `COc1ccc(-c2cc(Br)cc3c2[nH]c2c(C)nccc23)cc1` [Example 188, 6-Bromo-8-(4-methoxy-phenyl)-1-methyl-9H-pyrido[3,4-b]indole] returned an EC50 of 640 nM and an Emax above 80%.
Under “Mus musculus”, `Cc1nccc2c1[nH]c1c(-c3ccc(Cl)cc3)cc(Cl)cc12` [Example 189, 6-Chloro-8-(4-chloro-phenyl)-1-methyl-9H-pyrido[3,4-b]indole] had an EC50 of 500 nM and an Emax above 80%.
Taken in the same sequence, the figures for `Cc1nccc2c1[nH]c1c(-c3ccc(Cl)cc3Cl)cc(Cl)cc12` [Example 190, 6-Chloro-8-(2,4-dichloro-phenyl)-1-methyl-9H-pyrido[3,4-b]indole] were 720 nM and above 80%.
Where the note is “Mus musculus”, `COc1ccc(-c2cc(Cl)cc3c2[nH]c2cnccc23)cc1` [Example 191, 6-Chloro-8-(4-methoxy-phenyl)-9H-pyrido[3,4-b]indole] showed a 50% effective concentration (EC50) of 550 nM and a maximal effect (Emax) above 80%.
Taken in the same sequence, the figures for `CCOc1ccc(-c2cc(Cl)cc3c2[nH]c2c(C)nccc23)cc1` [Example 192, 6-Chloro-8-(4-ethoxy-phenyl)-1-methyl-9H-pyrido[3,4-b]indole] were 640 nM and above 80%.
For `COc1ccc(-c2cc(Cl)cc3c2[nH]c2c(C)nccc23)c(OC)c1` [Example 193, 6-Chloro-8-(2,4-dimethoxy-phenyl)-1-methyl-9H-pyrido[3,4-b]indole], in that order: above 10000 nM and 20 to 50%.
For `Cc1nccc2c1[nH]c1c(-c3ccc4c(c3)OC(C)C4)cc(Cl)cc12` (stereo not shown) [Example 196, 6-Chloro-1-methyl-8-(2-methyl-2,3-dihydro-benzofuran-6-yl)-9H-pyrido[3,4-b]indole], in that order: 800 nM and 50 to 80%.

Source of the values: patent US12275733B2, “Substituted pyrido[3,4-b]indoles for the treatment of cartilage disorders” (Sanofi, priority 2016, dated 2025).
